Results from patent US7608683B2, “Stress proteins and peptides and methods of use thereof” (The Regents of the University of California, priority 2000, dated 2009).
Where a SMILES comes first, the peptide text is derived from it. The star is where a group is joined. Biotin = O=C1N[C@H]2[C@H](CS[C@H]2CCCCC(=O)*)N1

Columns and labels:
patients with RA = conditions: 15 RA patients, 0.25, 2.5 or 25 mg daily orally for 6 months
Source text: This study was a Phase I Immune Tolerization study conducted to determine whether in RA interplay between HLA and dnaJ-derived peptides there is maintained and/or stimulation of T cells which participate in autoimmune inflammation. The trial (number “n” of patients who completed=13) was designed in order to adhere to the American College of Rheumatology (ACR) 20 criteria for evaluation of efficacy.
Data from Phase I: The data shown in FIGS. 11A-E and 12A-E stem from a Phase I trial in which a total of 13 human RA patients were treated with three different doses of dnaJP1 qd po for 6 months. In vitro T cell responses to dnaJP1 were monitored at monthly intervals by measuring T cell proliferation and cytokine production in patients treated with dnaJP1 or control molecules.
We designed a pilot clinical trial to obtain information regarding both safety and immunological efficacy of the treatment. Enrollment criteria for this study included active RA as defined by the American College of Rheumatology, a disease duration <5 years and in vitro responsiveness to dnaJP1, defined as T cell proliferation and/or production of proinflammatory cytokines. DnaJP1 was given orally for 6 months. […]

[1] = tested on: PBMC from patients with RA; conditions: 31 RA patient samples
Method: In FIG. 13A, Stimulation Index (SI) (y-axis). […] The dots represent individual patients. Lines indicate median values.
In FIG. 13B samples of 20 patients with recent onset RA and samples of 12 patients with OA were tested for T cell proliferation to the proteins and to the individual peptides.

[2] = tested on: PBMCs from patients with RA; assay: T cell proliferation assay, PBMC of RA patients in the dnaJP1 trial; format: cell-based, human; conditions: negative control peptide
Source text: FIG. 20A-L Treatment-induced modulation of T cell responses to dnaJP1. PBMC immune responses to dnaJP and controls from patients enrolled in the trial (n=15). T cell-proliferative response after in vitro culture with dnaJP1(a) or an irrelevant altered peptide ligand (b) in a standard proliferation assay. Phytohemagglutinin (a, ▴) was used as a positive control for T cell proliferation. […] Intracellular production of IL-2, IFN-γ, and TNF-α in response to dnaJP1 (c, e, and g) or PADRE peptide (d-f and h, respectively) at day 0 assessed at monthly intervals during treatment. Cytokine production is expressed as the percentage of CD3/cytokine double-positive cells measured by FACS in antigen-stimulated cultures, nonstimulated cultures (y axis). Error bars represent SD of the mean. Intracellular production of IL-4 (i) and IL-10 (k) after in vitro culture with dnaJP1 or with PADRE (j and l) at days 0, 56, and 168 of the treatment period.
T Cell Proliferation Assays. Peripheral blood mononuclear cells (PBMCs) were cultured in triplicate in […] u-shaped bottom wells (Costar, Cambridge, Mass.) at 5×10^5 cells per well for 120 h with or without antigen. […] Thymidine uptake was measured by using a liquid scintillation counter. Results are expressed as a mean cpm of triplicate cultures. The magnitude of the response is expressed as stimulation index: the mean cpm of stimulated/nonstimulated cultures. […]

[3] = tested on: PBMC of subjects with JIA; assay: immunological recognition (T cell proliferation and/or cytokine production) in subjects with JIA; format: cell-based, human
Source text: The right Y-axis depicts the stimulation index SI, and the left Y-axis depicts the production of cytokines INF-γ and IL-10 in pg/ml.
Immunological recognition of an antigen can be defined as antigen-specific T cell proliferation and/or antigen-specific cytokine production after culture with the specific antigens. In addition, in a very high percentage of subjects (ranging from 60 to 100%), T cell recognition of these pan DR binding hsp60 peptides could be detected (FIG. 9). This percentage can be considered extremely high if one considers both the failures of previous studies to determine T cell epitopes in JIA and the heterogenic HLA background in subjects with JIA.
If one compares the identified peptides with peptides that previously have been identified through the rat model of arthritis, the superiority of the method used here becomes evident. In previous studies in the model of adjuvant arthritis, it has been shown that mycobacterial hsp60 peptide containing amino acids 256-270 could induce protection in Adjuvant Arthritis. Following this finding a lot of effort has been put in attempting to identify the presence of 256-270 specific T cells in subjects with JIA. Based on the data provided by the computer algorithm, a new peptide was designed that was compared to the 256-270 aa peptide. […]

[4] = tested on: PBMC from patients with JDM; assay: T cell proliferation (thymidine incorporation), PBMC of Juvenile Dermatomyositis patients; format: cell-based, human; conditions: 10 micrograms/ml, 96 hours; active disease vs remission
Source text: FIG. 17 is a graph showing T cell proliferative responses of PBMC from patients with Juvenile Dermatomyositis (JDM) towards the hsp60 bacterial and human peptides of FIG. 5. Patients in remission (n=7); patients with active JDM (n=6).
This example identifies in another pediatric disease a peptide from the pool whose recognition triggers regulatory type T cells. Thirteen patients with a definite diagnosis of JDM according to standard disease criteria, were included in this study. […] All antigens were cultured at 10 micrograms/ml. After 96 hours thymidine incorporation was measured. The results are expressed in FIG. 17 as stimulation index (SI). SI is defined as counts per minute (cpm) thymidine incorporation in cells cultured with an antigen divided by cpm of cells cultured in culture medium without antigen. […] Bars represents the mean SI for PBMC from JDM patients with either active disease or incomplete clinical remission.

[5] = tested on: PBMC of subjects with JIA; format: cell-based, human; conditions: 72 hours culture, ELISA

Molecule | recognition (T cell proliferation) by RA patients [1] | other results
C[C@H](NC(=O)[C@H](C)NC(=O)[C@H](Cc1c[nH]cn1)NC(=O)CNC(=O)[C@H](Cc1ccc(O)cc1)NC(=O)[C@H](CCC(N)=O)NC(=O)[C@H](CC(=O)O)NC(=O)[C@H](Cc1ccc(O)cc1)NC(=O)[C@H](C)NC(=O)[C@H](C)NC(=O)[C@H](CCCNC(=N)N)NC(=O)[C@H](CCCCN)NC(=O)[C@H](CCC(N)=O)NC(=O)CCCC[C@@H]1SC[C@@H]2NC(=O)N[C@@H]21)C(=O)N[C@@H](Cc1ccccc1)C(=O)N[C@@H](CCC(=O)O)C(N)=O [dnaJP1] (Biotin-QKRAAYDQYGHAAFE-NH2) | – | tolerability / side effects (patients with RA): well tolerated because no significant side effects were reported
AYVLLSEKKISSIQS [P4] | recognized | –
DERAAYDQYGHAAFE (Biotin-DERAAYDQYGHAAFE-NH2; SMILES C[C@H](NC(=O)[C@H](C)NC(=O)[C@H](Cc1c[nH]cn1)NC(=O)CNC(=O)[C@H](Cc1ccc(O)cc1)NC(=O)[C@H](CCC(N)=O)NC(=O)[C@H](CC(=O)O)NC(=O)[C@H](Cc1ccc(O)cc1)NC(=O)[C@H](C)NC(=O)[C@H](C)NC(=O)[C@H](CCCNC(=N)N)NC(=O)[C@H](CCC(=O)O)NC(=O)[C@H](CC(=O)O)NC(=O)CCCC[C@@H]1SC[C@@H]2NC(=O)N[C@@H]21)C(=O)N[C@@H](Cc1ccccc1)C(=O)N[C@@H](CCC(=O)O)C(N)=O) [dnaJPv, altered peptide ligand, identical to dnaJP1 except for the two N-terminal amino acids; negative control] | – | proliferative T cell response in patients with RA [2]: does not induce a proliferative T cell response; proliferative T cell response in patients with RA ([2]; listed as dnaJpV): not stimulatory in patients
EAVLEDPYILLVSSK [P5] | recognized | –
GEALSTLVLNRLKVG [P2] | recognized | –
GEALSTLVVNKIRGT [P1] | recognized | T cell responses as defined by T cell proliferation and cytokine production [3]: did induce T cell responses
IAGLFLTTEAVVADK [P7] | recognized | –
KCEFQDAYVLLSEKK [P6] | recognized | –
PYILLVSSKVSTVKD [P3] | recognized | –
VASLLTTAEVVVTEI (listed as Homo sapiens) [P8, residues 535-549 of human hsp60] | recognized | recognition (T cell proliferation, SI) in JDM patients [4]: recognized by the patients during disease remission
mycobacterial hsp60 256-270: negative control peptide, mycobacterial hsp60 amino acids 256-270, protective in rat adjuvant arthritis | – | antigen-specific cytokine production (IL-10, IFN-γ, TNF-α) [5]: did not induce any cytokine production
